Laboratory results: ChEMBL document CHEMBL5131409, “Synthesis and characterization of chiral 6-azaspiro[2.5]octanes as potent and selective antagonists of the M4 muscarinic acetylcholine receptor” (Bioorg Med Chem Lett, 2022)

What was measured:
[1] = target: Cytochrome P450 3A4 (Homo sapiens, UniProt P08684); assay: Inhibition of CYP3A4 in human liver microsomes using cocktail of isoform-specific probe substrate; type: ADME, Microsome
[2] = Ratio of AUC (0.25 to last) in rat brain to plasma at 3 mg/kg, ip; type: ADME, organism-based; settings: read-out: Ratio AUC
[3] = Intrinsic clearance in rat liver microsomes; type: ADME, Microsome; settings: read-out: CLH
[4] = AUC (0.25 to last) in mouse plasma at 3 mg/kg, ip; type: ADME, organism-based; parameters: dose 3 mg/kg, route ip
[5] = target: T1, Muscarinic acetylcholine receptor M4 (Homo sapiens) (UniProt P08173); assay: Antagonist activity at human muscarinic acetylcholine M4 receptor expressed in CHO cells co-expressing Gqi5 assessed as minimal acetylcholine response by calcium mobilization assay relative to control; type: functional, cell-based; parameters: scale not given: the % may be the effect or the level left; settings: filed as antagonist
T1 sequence (whole entry): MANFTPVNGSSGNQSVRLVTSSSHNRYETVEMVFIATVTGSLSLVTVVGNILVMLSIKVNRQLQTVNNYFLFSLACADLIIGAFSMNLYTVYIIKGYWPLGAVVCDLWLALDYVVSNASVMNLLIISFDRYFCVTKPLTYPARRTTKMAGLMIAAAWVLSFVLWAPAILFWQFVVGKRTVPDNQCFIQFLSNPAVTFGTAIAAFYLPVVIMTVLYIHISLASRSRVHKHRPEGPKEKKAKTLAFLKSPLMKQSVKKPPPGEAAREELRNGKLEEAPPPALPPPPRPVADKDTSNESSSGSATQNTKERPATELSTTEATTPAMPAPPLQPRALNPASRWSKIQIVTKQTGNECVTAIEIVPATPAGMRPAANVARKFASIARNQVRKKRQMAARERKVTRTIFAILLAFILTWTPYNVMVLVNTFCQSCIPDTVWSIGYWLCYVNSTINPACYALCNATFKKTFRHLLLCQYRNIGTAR

[6] = target: Cytochrome P450 2D6 (Homo sapiens, UniProt P10635); assay: Inhibition of CYP2D6 in human liver microsomes using cocktail of isoform-specific probe substrate; type: ADME, Microsome
Chain of Cytochrome P450 2D6 (P10635 whole entry, canonical isoform): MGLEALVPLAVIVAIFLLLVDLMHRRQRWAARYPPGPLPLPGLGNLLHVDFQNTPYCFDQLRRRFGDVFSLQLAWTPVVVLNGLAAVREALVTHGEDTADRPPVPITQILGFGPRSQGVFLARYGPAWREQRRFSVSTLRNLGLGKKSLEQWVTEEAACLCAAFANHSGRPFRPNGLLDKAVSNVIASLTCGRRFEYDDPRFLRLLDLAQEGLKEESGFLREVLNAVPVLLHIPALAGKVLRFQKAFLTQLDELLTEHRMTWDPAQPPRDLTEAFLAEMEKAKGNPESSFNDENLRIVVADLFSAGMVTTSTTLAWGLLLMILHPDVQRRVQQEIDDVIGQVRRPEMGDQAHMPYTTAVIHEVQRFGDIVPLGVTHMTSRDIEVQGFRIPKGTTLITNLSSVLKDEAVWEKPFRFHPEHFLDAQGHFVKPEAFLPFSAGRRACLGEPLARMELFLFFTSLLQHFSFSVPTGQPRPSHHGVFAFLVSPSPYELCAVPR

[7] = target: Cytochrome P450 2C9 (Homo sapiens, UniProt P11712); assay: Inhibition of CYP2C9 in human liver microsomes using cocktail of isoform-specific probe substrate; type: ADME, Microsome
Chain of Cytochrome P450 2C9 (P11712 whole entry, canonical isoform): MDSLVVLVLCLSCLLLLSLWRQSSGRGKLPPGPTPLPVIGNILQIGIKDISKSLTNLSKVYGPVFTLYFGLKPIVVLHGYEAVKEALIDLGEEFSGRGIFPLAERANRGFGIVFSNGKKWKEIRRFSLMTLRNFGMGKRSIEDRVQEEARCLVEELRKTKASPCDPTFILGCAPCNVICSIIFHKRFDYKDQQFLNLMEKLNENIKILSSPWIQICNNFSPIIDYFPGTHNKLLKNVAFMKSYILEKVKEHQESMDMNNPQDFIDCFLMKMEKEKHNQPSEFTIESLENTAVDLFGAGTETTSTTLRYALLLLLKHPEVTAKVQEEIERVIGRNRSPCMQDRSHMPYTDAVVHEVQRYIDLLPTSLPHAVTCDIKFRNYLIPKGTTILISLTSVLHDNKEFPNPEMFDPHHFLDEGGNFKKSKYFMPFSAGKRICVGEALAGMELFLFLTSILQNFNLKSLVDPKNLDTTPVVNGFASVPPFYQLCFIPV

[8] = Cmax in rat brain at 3 mg/kg, ip; type: ADME, organism-based; parameters: dose 3 mg/kg, route ip
[9] = Selectivity ratio of IC50 for inhibition of human muscarinic acetylcholine M2 receptor to IC50 for inhibition of human muscarinic acetylcholine M4 receptor expressed in CHO cells co-expressing Gqi5 in the presence of acetylcholine at EC80 concentration by calcium mobilization assay; type: cell-based
[10] = AUC (0.25 to last) in rat brain at 3 mg/kg, ip; type: ADME, organism-based; settings: in vivo
[11] = Unbound Cmax in rat plasma at 3 mg/kg, ip; type: ADME, organism-based; settings: in vivo
[12] = AUC (0 to infinity) in rat at 3 mg/kg, iv; type: ADME, organism-based; parameters: time infinity, dose 3 mg/kg, route iv; settings: in vivo
[13] = target: T2, Muscarinic acetylcholine receptor M4 (Homo sapiens, UniProt P08173); assay: Inhibition of human muscarinic acetylcholine M4 receptor expressed in CHO cells co-expressing Gqi5 in the presence of acetylcholine at EC80 concentration by calcium mobilization assay; type: functional, cell-based
T2 sequence (P08173 whole entry): T1 sequence (whole entry)

[14] = Tmax in mouse plasma at 3 mg/kg, ip; type: ADME, organism-based
[15] = Tmax in rat plasma at 3 mg/kg, ip; type: ADME, organism-based
[16] = Intrinsic clearance in human liver microsomes; type: ADME, Microsome; settings: read-out: CLH
[17] = Cmax in mouse plasma at 3 mg/kg, ip; type: ADME, organism-based; parameters: dose 3 mg/kg, route ip
[18] = target: T3, Muscarinic acetylcholine receptor M1 (Rattus norvegicus, UniProt P08482); assay: Inhibition of rat muscarinic acetylcholine M1 receptor expressed in CHO cells co-expressing Gqi5 preincubated with compound followed by acetylcholine addition at EC80 concentration by calcium mobilization assay; type: functional, cell-based
T3 sequence (P08482 whole entry): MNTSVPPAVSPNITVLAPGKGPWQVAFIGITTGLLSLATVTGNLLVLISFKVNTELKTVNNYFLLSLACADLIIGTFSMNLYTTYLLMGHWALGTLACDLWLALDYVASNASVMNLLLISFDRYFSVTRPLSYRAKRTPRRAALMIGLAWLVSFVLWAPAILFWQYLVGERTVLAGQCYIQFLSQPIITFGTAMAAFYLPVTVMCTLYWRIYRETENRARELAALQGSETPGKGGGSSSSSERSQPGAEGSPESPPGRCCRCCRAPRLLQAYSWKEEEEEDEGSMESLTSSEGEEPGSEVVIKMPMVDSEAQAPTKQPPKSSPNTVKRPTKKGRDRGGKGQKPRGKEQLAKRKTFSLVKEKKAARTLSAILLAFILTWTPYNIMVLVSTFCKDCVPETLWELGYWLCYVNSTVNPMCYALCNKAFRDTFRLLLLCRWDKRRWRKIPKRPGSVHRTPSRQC

[19] = target: T4, Muscarinic acetylcholine receptor M2 (Homo sapiens, UniProt P08172); assay: Inhibition of human muscarinic acetylcholine M2 receptor expressed in CHO cells co-expressing Gqi5 preincubated with compound followed by acetylcholine addition at EC80 concentration by calcium mobilization assay; type: functional, cell-based
T4 sequence (P08172 whole entry): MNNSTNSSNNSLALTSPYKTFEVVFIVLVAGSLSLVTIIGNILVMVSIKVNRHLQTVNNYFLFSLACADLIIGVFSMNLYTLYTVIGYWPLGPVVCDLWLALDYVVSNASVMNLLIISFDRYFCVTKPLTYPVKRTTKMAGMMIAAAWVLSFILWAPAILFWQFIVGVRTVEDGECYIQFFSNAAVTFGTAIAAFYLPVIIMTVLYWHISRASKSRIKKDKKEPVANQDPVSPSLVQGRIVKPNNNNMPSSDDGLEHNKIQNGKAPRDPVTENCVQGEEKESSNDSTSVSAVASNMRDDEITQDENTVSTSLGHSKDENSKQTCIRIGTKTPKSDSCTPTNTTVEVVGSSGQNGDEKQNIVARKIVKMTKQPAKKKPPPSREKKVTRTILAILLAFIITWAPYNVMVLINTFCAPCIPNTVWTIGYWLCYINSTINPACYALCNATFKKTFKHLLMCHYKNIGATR

[20] = Elimination half life in rat at 3 mg/kg, iv; type: ADME, organism-based; settings: in vivo, read-out: beta t1/2 (converted)
[21] = Tmax in mouse brain at 3 mg/kg, ip; type: ADME, organism-based
[22] = AUC (0.25 to last) in rat plasma at 3 mg/kg, ip; type: ADME, organism-based; parameters: dose 3 mg/kg, route ip
[23] = Tmax in rat brain at 3 mg/kg, ip; type: ADME, organism-based

Chain of Cytochrome P450 3A4 (P08684 whole entry, canonical isoform): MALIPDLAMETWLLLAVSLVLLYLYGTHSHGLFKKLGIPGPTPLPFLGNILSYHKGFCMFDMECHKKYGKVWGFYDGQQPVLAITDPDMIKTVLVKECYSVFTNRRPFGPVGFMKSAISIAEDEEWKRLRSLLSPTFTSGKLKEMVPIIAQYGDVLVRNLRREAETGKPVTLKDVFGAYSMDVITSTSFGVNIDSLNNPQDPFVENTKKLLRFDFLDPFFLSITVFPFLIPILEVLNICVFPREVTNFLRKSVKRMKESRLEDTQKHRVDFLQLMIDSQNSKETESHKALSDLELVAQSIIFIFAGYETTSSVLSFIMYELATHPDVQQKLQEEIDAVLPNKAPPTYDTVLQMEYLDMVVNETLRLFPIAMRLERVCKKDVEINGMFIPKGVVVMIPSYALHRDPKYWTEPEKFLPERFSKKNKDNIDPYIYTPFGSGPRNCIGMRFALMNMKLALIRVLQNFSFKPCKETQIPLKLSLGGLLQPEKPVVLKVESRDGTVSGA

Which IC50 [1] does the source give for `CC(=O)Nc1ccc(-c2ccc(NC[C@@H]3CC34CCN(CC3CCOCC3)CC4)nn2)cc1` here?
The IC50 was greater than 30 µM.

What about the Kp [2] of the same compound?
Its Kp is 0.23.

What about the CLint scaled [3] of the same compound?
The CLint scaled was 6.2 mL/min/kg.

And the AUC [4]?
Its AUC is 10500 ng·h/mL.

What about the Activity [5] of the same compound?
The Activity was 3.2%.

And the IC50 [6]?
Its IC50 is greater than 30 µM.

And the IC50 [7]?
The IC50 was greater than 30 µM.

And the Cmax [8]?
Its Cmax is 477 ng/g.

What about the Ratio IC50 [9] of the same compound?
Its Ratio IC50 is greater than 140.

What about the AUClast [10] of the same compound?
Its AUClast is 2180 ng·h/g.

What about the fCmax [11] of the same compound?
Its fCmax is 1656 ng/mL.

What about the AUC(0-inf) [12] of the same compound?
The AUC(0-inf) was 202 ng·h/mL.

And the IC50 [13]?
Its IC50 is 0.071 µM.

What about the Tmax [14] of the same compound?
Its Tmax is 0.5 h.

And the Tmax [15]?
The Tmax was 0.25 h.

What about the predicted hepatic clearance [16] of the same compound?
Its predicted hepatic clearance is 16 mL/min/kg.

What about the Cmax [17] of the same compound?
Its Cmax is 6870 ng/mL.

What about the IC50 [18] of the same compound?
Its IC50 is greater than 10 µM.

What about the IC50 [19] of the same compound?
The IC50 was greater than 10 µM.

What about the half-life [20] of the same compound?
Its half-life is 8.6 h.

And the Tmax [21]?
Its Tmax is 2 h.

What about the AUC [22] of the same compound?
Its AUC is 9550 ng·h/mL.

And the Tmax [23]?
The Tmax was 2 h.
